What was measured:
rape = test: Test B pre/postemergence rape; assay type: in vivo, Brassica napus
In short: (§1)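 Herbicidal effect was estimated by eye on a ten-point control scale after plants spent twelve to sixteen days in a greenhouse following soil or foliar treatment. Foliar sprays targeted plants at one to four leaves; all doses were formulated in a non-phytotoxic solvent with surfactant.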

cocklebur = test: Test B pre/postemergence cocklebur; assay type: in vivo, Xanthium strumarium
In short: as §1

giant foxtail = test: Test B pre/postemergence giant foxtail; assay type: in vivo, Setaria faberii
In short: as §1

velvetleaf = test: Test B pre/postemergence velvetleaf; assay type: in vivo, Abutilon theophrasti
In short: as §1

bedstraw = test: Test B pre/postemergence bedstraw; assay type: in vivo, Galium aparine
In short: as §1

soybean = test: Test B pre/postemergence soybean; assay type: in vivo, Glycine max
In short: as §1

morningglory = test: Test B pre/postemergence morningglory; assay type: in vivo, Ipomoea hederacea
In short: as §1

sugar beet = test: Test B pre/postemergence sugar beet; assay type: in vivo, Beta vulgaris
In short: as §1

blackgrass = test: Test B pre/postemergence blackgrass; assay type: in vivo, Alopecurus myosuroides
In short: as §1

pigweed = test: Test B pre/postemergence pigweed; assay type: in vivo, Amaranthus retroflexus
In short: as §1

wild oat = test: Test B pre/postemergence wild oat; assay type: in vivo, Avena fatua
In short: as §1

crabgrass = test: Test B pre/postemergence crabgrass; assay type: in vivo, Digitaria sanguinalis
In short: as §1

corn = test: Test B pre/postemergence corn; assay type: in vivo, Zea mays
In short: as §1

wheat = test: Test B pre/postemergence wheat; assay type: in vivo, Triticum aestivum
In short: as §1

purple nutsedge = test: Test B pre/postemergence purple nutsedge; assay type: in vivo, Cyperus rotundus
In short: as §1

surinam grass = test: Test B pre/postemergence surinam grass; assay type: in vivo, Brachiaria decumbens
In short: as §1

[1] = Postemergence, Rate 62 g/ha, scale of 0 to 10, 0 is no effect, 10 is complete control
[2] = Postemergence, Rate 125 g/ha, scale of 0 to 10 where 0 is no effect and 10 is complete control
[3] = Postemergence, Rate 250 g/ha, scale of 0 to 10, 0 is no effect, 10 is complete control
[4] = Postemergence, Rate 500 g/ha, scale of 0 to 10 where 0 is no effect and 10 is complete control
[5] = Preemergence, Rate 62 g/ha, scale 0 to 10 (0 no effect, 10 complete control)
[6] = Preemergence, Rate 125 g/ha, scale of 0 to 10 where 0 is no effect and 10 is complete control
[7] = Preemergence, Rate 500 g/ha, scale of 0 to 10 where 0 is no effect and 10 is complete control
[8] = Preemergence, Rate 62 g/ha, scale of 0 to 10 where 0 is no effect and 10 is complete control
[9] = Preemergence, Rate 250 g/ha, scale 0 to 10 (0 no effect, 10 complete control)
[10] = Rate 1000 g/ha, Preemergence, scale 0 to 10 (0 no effect, 10 complete control)

## CC(C)N(C(=O)n1oc(=O)n(CCCC(F)(F)F)c1=O)c1ccccc1 [Compound 585]
rape; [1]
  Rape plant response rating: 0
rape; [2]
  Plant response rating, Rape: 3
rape; [3]
  Rape plant response rating: 5
rape; [4]
  Plant response rating, Rape: 5
rape; [5]
  Rape plant response rating: 3
rape; [6]
  Rape plant response rating: 8
rape; [7]
  Rape plant response rating: 10
cocklebur; [1]
  Cocklebur plant response rating: 0
cocklebur; [2]
  Plant response rating, Cocklebur: 0
cocklebur; [3]
  Cocklebur plant response rating: 0
cocklebur; [4]
  Plant response rating, Cocklebur: 7
cocklebur; [5]
  Cocklebur plant response rating: 0
cocklebur; [6]
  Cocklebur plant response rating: 0
cocklebur; Preemergence, Rate 250 g/ha
  Cocklebur plant response rating (0 to 10 scale): 0
cocklebur; [7]
  Cocklebur plant response rating: 3
Giant foxtail; [1]
  Giant foxtail plant response rating: 6
Giant foxtail; [2]
  Plant response rating, Giant foxtail: 6
Giant foxtail; [3]
  Giant foxtail plant response rating: 8
Giant foxtail; [4]
  Plant response rating, Giant foxtail: 9
Giant foxtail; [5]
  Giant foxtail plant response rating: 7
Giant foxtail; [6]
  Giant foxtail plant response rating: 6
Giant foxtail; [7]
  Giant foxtail plant response rating: 10
velvetleaf; [2]
  Plant response rating, Velvetleaf: 3
velvetleaf; [3]
  Velvetleaf plant response rating: 4
velvetleaf; [4]
  Plant response rating, Velvetleaf: 5
velvetleaf; [5]
  Velvetleaf plant response rating: 0
velvetleaf; [6]
  Velvetleaf plant response rating: 0
velvetleaf; [7]
  Velvetleaf plant response rating: 6
bedstraw; [1]
  Bedstraw plant response rating: 0
bedstraw; [2]
  Plant response rating, Bedstraw: 8
bedstraw; [5]
  Bedstraw plant response rating: 7
bedstraw; [6]
  Bedstraw plant response rating: 8
bedstraw; Preemergence, Rate 250 g/ha
  Bedstraw plant response rating (0 to 10 scale): 9
bedstraw; [7]
  Bedstraw plant response rating: 8
soybean; [2]
  Plant response rating, Soybean: 0
soybean; [3]
  Soybean plant response rating: 4
soybean; [4]
  Plant response rating, Soybean: 3
soybean; [5]
  Soybean plant response rating: 0
soybean; [6]
  Soybean plant response rating: 0
soybean; [7]
  Soybean plant response rating: 3
morningglory; [1]
  Morningglory plant response rating: 4
morningglory; [2]
  Plant response rating, Morningglory: 8
morningglory; [3]
  Morningglory plant response rating: 10
morningglory; [4]
  Plant response rating, Morningglory: 10
morningglory; [5]
  Morningglory plant response rating: 0
morningglory; [6]
  Morningglory plant response rating: 0
morningglory; [7]
  Morningglory plant response rating: 5
Sugar beet; [2]
  Plant response rating, Sugarbeets: 2
Sugar beet; [3]
  Sugarbeets plant response rating: 4
Sugar beet; [4]
  Plant response rating, Sugarbeets: 7
Sugar beet; [5]
  Sugarbeets plant response rating: 0
Sugar beet; [6]
  Sugarbeets plant response rating: 3
Sugar beet; [7]
  Sugarbeets plant response rating: 6
blackgrass; [1]
  Blackgrass plant response rating: 3
blackgrass; [2]
  Plant response rating, Blackgrass: 6
blackgrass; [3]
  Blackgrass plant response rating: 6
blackgrass; [4]
  Plant response rating, Blackgrass: 7
blackgrass; [5]
  Blackgrass plant response rating: 3
blackgrass; [6]
  Blackgrass plant response rating: 8
blackgrass; Preemergence, Rate 250 g/ha
  Blackgrass plant response rating (0 to 10 scale): 8
blackgrass; [7]
  Blackgrass plant response rating: 8
pigweed; [2]
  Plant response rating, Redroot pigweed: 0
pigweed; [3]
  Redroot pigweed plant response rating: 3
pigweed; [4]
  Plant response rating, Redroot pigweed: 7
pigweed; [5]
  Redroot pigweed plant response rating: 6
pigweed; [6]
  Redroot pigweed plant response rating: 9
pigweed; [7]
  Redroot pigweed plant response rating: 10
Wild oat; [2]
  Plant response rating, Wild oats: 0
Wild oat; [3]
  Wild oats plant response rating: 0
Wild oat; [4]
  Plant response rating, Wild oats: 2
Wild oat; [5]
  Wild oats plant response rating: 0
Wild oat; [6]
  Wild oats plant response rating: 3
Wild oat; [7]
  Wild oats plant response rating: 9
crabgrass; [2]
  Plant response rating, Crabgrass: 5
crabgrass; [3]
  Crabgrass plant response rating: 9
crabgrass; [4]
  Plant response rating, Crabgrass: 9
crabgrass; [5]
  Crabgrass plant response rating: 5
crabgrass; [6]
  Crabgrass plant response rating: 8
crabgrass; [7]
  Crabgrass plant response rating: 10
corn; [1]
  Corn plant response rating: 0
corn; [2]
  Plant response rating, Corn: 0
corn; [3]
  Corn plant response rating: 0
corn; [4]
  Plant response rating, Corn: 5
corn; [5]
  Corn plant response rating: 0
corn; [6]
  Corn plant response rating: 2
corn; Preemergence, Rate 250 g/ha
  Corn plant response rating (0 to 10 scale): 3
corn; [7]
  Corn plant response rating: 5
wheat; [2]
  Plant response rating, Wheat: 2
wheat; [3]
  Wheat plant response rating: 2
wheat; [4]
  Plant response rating, Wheat: 4
wheat; [5]
  Wheat plant response rating: 0
wheat; [6]
  Wheat plant response rating: 3
wheat; [7]
  Wheat plant response rating: 3
Purple nutsedge; [1]
  Nutsedge plant response rating: 0
Purple nutsedge; [2]
  Plant response rating, Nutsedge: 0
Purple nutsedge; [3]
  Nutsedge plant response rating: 0
Purple nutsedge; [4]
  Plant response rating, Nutsedge: 0
Purple nutsedge; [5]
  Nutsedge plant response rating: 0
Purple nutsedge; [6]
  Nutsedge plant response rating: 0
Purple nutsedge; [7]
  Nutsedge plant response rating: 10
Surinam grass; [1]
  B. signalgrass plant response rating: 0
Surinam grass; [2]
  Plant response rating, B. signalgrass: 0
Surinam grass; [3]
  B. signalgrass plant response rating: 0
Surinam grass; [4]
  Plant response rating, B. signalgrass: 7
Surinam grass; [5]
  B. signalgrass plant response rating: 3
Surinam grass; [6]
  B. signalgrass plant response rating: 8
Surinam grass; Preemergence, Rate 250 g/ha
  B. signalgrass plant response rating (0 to 10 scale, 0 is no effect, 10 is complete control): 9
Surinam grass; [7]
  B. signalgrass plant response rating: 9

## CC(C)N(C(=O)n1oc(=O)n(C(C)C=O)c1=O)c1ccccc1 (stereo not shown) [Compound 693]
rape; [8]
  Rape plant response rating: 0
rape; [6]
  Plant response rating, Rape: 0
cocklebur; [8]
  Cocklebur plant response rating: 0
cocklebur; [6]
  Plant response rating, Cocklebur: 0
cocklebur; [9]
  Plant response rating, Cocklebur: 0
cocklebur; [7]
  Plant response rating, Cocklebur: 0
Giant foxtail; [8]
  Giant foxtail plant response rating: 0
Giant foxtail; [6]
  Plant response rating, Giant foxtail: 0
velvetleaf; [8]
  Velvetleaf plant response rating: 0
velvetleaf; [6]
  Plant response rating, Velvetleaf: 0
bedstraw; [8]
  Bedstraw plant response rating: 0
bedstraw; [6]
  Plant response rating, Bedstraw: 0
bedstraw; [9]
  Plant response rating, Bedstraw: 0
bedstraw; [7]
  Plant response rating, Bedstraw: 0
soybean; [8]
  Soybean plant response rating: 0
soybean; [6]
  Plant response rating, Soybean: 0
morningglory; [8]
  Morningglory plant response rating: 0
morningglory; [6]
  Plant response rating, Morningglory: 0
Sugar beet; [8]
  Sugarbeets plant response rating: 0
Sugar beet; [6]
  Plant response rating, Sugarbeets: 0
blackgrass; [8]
  Blackgrass plant response rating: 0
blackgrass; [6]
  Plant response rating, Blackgrass: 0
blackgrass; [9]
  Plant response rating, Blackgrass: 0
blackgrass; [7]
  Plant response rating, Blackgrass: 2
pigweed; [8]
  Redroot pigweed plant response rating: 0
pigweed; [6]
  Plant response rating, Redroot pigweed: 0
Wild oat; [8]
  Wild oats plant response rating: 0
Wild oat; [6]
  Plant response rating, Wild oats: 0
crabgrass; [8]
  Crabgrass plant response rating: 0
crabgrass; [6]
  Plant response rating, Crabgrass: 0
crabgrass; [9]
  Plant response rating, Crabgrass: 0
corn; [8]
  Corn plant response rating: 0
corn; [6]
  Plant response rating, Corn: 0
corn; [9]
  Plant response rating, Corn: 0
wheat; [8]
  Wheat plant response rating: 0
wheat; [6]
  Plant response rating, Wheat: 0
Purple nutsedge; [6]
  Plant response rating, Nutsedge: 0
Surinam grass; [8]
  B. signalgrass plant response rating: 0
Surinam grass; [6]
  Plant response rating, B. signalgrass: 0
Surinam grass; [9]
  Plant response rating, B. signalgrass: 0
Surinam grass; [7]
  Plant response rating, B. signalgrass: 0

## COP(=O)(CCn1c(=O)on(C(=O)N(c2ccc(Cl)cc2)C(C)C)c1=O)OC [Compound 698]
rape; [6]
  Plant response rating, Rape: 0
rape; [10]
  Plant response rating, Rape: 8
cocklebur; [6]
  Plant response rating, Cocklebur: 0
cocklebur; [9]
  Plant response rating, Cocklebur: 0
cocklebur; [7]
  Plant response rating, Cocklebur: 0
cocklebur; [10]
  Plant response rating, Cocklebur: 0
Giant foxtail; [6]
  Plant response rating, Giant foxtail: 0
Giant foxtail; [10]
  Plant response rating, Giant foxtail: 10
velvetleaf; [6]
  Plant response rating, Velvetleaf: 0
velvetleaf; [10]
  Plant response rating, Velvetleaf: 0
bedstraw; [6]
  Plant response rating, Bedstraw: 0
bedstraw; [9]
  Plant response rating, Bedstraw: 0
bedstraw; [7]
  Plant response rating, Bedstraw: 0
bedstraw; [10]
  Plant response rating, Bedstraw: 0
soybean; [6]
  Plant response rating, Soybean: 0
soybean; [10]
  Plant response rating, Soybean: 3
morningglory; [6]
  Plant response rating, Morningglory: 0
morningglory; [10]
  Plant response rating, Morningglory: 0
Sugar beet; [6]
  Plant response rating, Sugarbeets: 0
Sugar beet; [10]
  Plant response rating, Sugarbeets: 0
blackgrass; [6]
  Plant response rating, Blackgrass: 0
blackgrass; [9]
  Plant response rating, Blackgrass: 2
blackgrass; [7]
  Plant response rating, Blackgrass: 8
blackgrass; [10]
  Plant response rating, Blackgrass: 9
pigweed; [6]
  Plant response rating, Redroot pigweed: 0
pigweed; [10]
  Plant response rating, Redroot pigweed: 0
Wild oat; [6]
  Plant response rating, Wild oats: 0
Wild oat; [10]
  Plant response rating, Wild oats: 10
crabgrass; [6]
  Plant response rating, Crabgrass: 3
crabgrass; [9]
  Plant response rating, Crabgrass: 8
crabgrass; [10]
  Plant response rating, Crabgrass: 9
corn; [6]
  Plant response rating, Corn: 0
corn; [9]
  Plant response rating, Corn: 0
corn; [10]
  Plant response rating, Corn: 0
wheat; [6]
  Plant response rating, Wheat: 0
wheat; [10]
  Plant response rating, Wheat: 6
Purple nutsedge; [6]
  Plant response rating, Nutsedge: 0
Surinam grass; [6]
  Plant response rating, B. signalgrass: 0
Surinam grass; [9]
  Plant response rating, B. signalgrass: 3
Surinam grass; [7]
  Plant response rating, B. signalgrass: 5
Surinam grass; [10]
  Plant response rating, B. signalgrass: 4
